Counter-ions that a name gives are not always drawn. Like-named read-outs stand apart in the source and are kept apart here.
Assays:
[1] = biological target: T1, human recombinant GST-PAK1-KD protein (Homo sapiens, UniProt Q13153); assay: GST-PAK1-KD (kinase domain) biochemical assay, microfluidic mobility shift
T1 construct: residues #249-545 of human PAK1, UniProtKP/Swiss Q13153; His6 (N); made in house; host or cells: Sf9 insect cells, pAcGP67 baculovirus expression vector

[2] = system: group I PAKs (PAK1-3) in EBC1 cells, MEK1 phosphorylation at S298; assay: Cellular PAK assay: MEK1 (S298) phosphorylation in EBC1 cells, HTRF; assay type: cell-based; conditions: Homo sapiens, EBC-1, 2 h treatment, Example 66
Method: Group I PAKs (PAK1-3) are activated upon binding to the Rho GTPases, Rac1 and Cdc42. […] The inhibition of group I PAKs in EBC1 cells is assessed by detecting changes in the level of MEK1 phosphorylation at S298 using homogenous time-resolved fluorescence (HTRF). […] Following inhibitor treatment, cells were lysed with 25 μL of 1× cellular kinase lysis buffer (Cisbio) containing 1× cellular kinase blocking reagent (Cisbio). Cellular lysis was carried out at 4° C. for 2 h with constant shaking before lysate (16 μL) was transferred to white 384-well ProxiPlates™ (Perkin Elmer).

[3] = GST-PAK1-KD Inhibition Assay - Example 65, read-out: PAK1 inhibition Ki
[4] = Table I, PAK1 Ki class, read-out: Ki
[5] = Table II, PAK1 Ki class, read-out: Ki

T1 sequence (Q13153 249-545): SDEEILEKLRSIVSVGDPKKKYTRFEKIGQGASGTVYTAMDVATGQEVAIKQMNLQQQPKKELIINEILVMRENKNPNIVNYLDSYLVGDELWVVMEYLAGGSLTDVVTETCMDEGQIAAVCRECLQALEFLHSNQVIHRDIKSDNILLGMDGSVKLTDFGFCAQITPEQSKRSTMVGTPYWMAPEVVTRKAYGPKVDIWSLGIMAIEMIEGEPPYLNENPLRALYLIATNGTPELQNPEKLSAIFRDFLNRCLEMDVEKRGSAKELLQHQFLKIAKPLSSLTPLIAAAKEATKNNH

Row | Compound | Ki [1, 4] [nM] | Ki [1, 5] [nM] | also measured
1 | C[C@H](Nc1nccc(Nc2cc(C3CCC3)[nH]n2)n1)c1ccc2[nH]ccc2c1 [I-114, (S)—N^2-(1-(1H-indol-5-yl)ethyl)-N^4-(5-cyclobutyl-1H-pyrazol-3-yl)pyrimidine-2,4-diamine] | < 50 |  | Ki [1, 3]: 6.75 nM; IC50 [2]: 133 nM
2 | Fc1cc(CN(CCN2CCCC2)c2nccc(Nc3cc(C4CC4)[nH]n3)n2)c2cn[nH]c2c1 [II-59, N^4-(5-cyclopropyl-1H-pyrazol-3-yl)-N^2-((6-fluoro-1H-indazol-4-yl)methyl)-N^2-(2-(pyrrolidin-1-yl)ethyl)pyrimidine-2,4-diamine] |  | < 50 | Ki [1, 3]: 6 nM; IC50 [2]: 257 nM
3 | CC(CO)N(Cc1cc(F)cc2[nH]ncc12)c1nccc(Nc2cc(C3CC3)[nH]n2)n1 (stereo not drawn) [II-56, 2-((4-((5-cyclopropyl-1H-pyrazol-3-yl)amino)pyrimidin-2-yl)((6-fluoro-1H-indazol-4-yl)methyl)amino)propan-1-ol] |  | < 50 | Ki [1, 3]: 4.2 nM; IC50 [2]: 70.8 nM
4 | COc1cc(CNc2nccc(Nc3cc(C4CC4)[nH]n3)n2)c2cn[nH]c2c1 [II-74, N^4-(5-cyclopropyl-1H-pyrazol-3-yl)-N^2-((6-methoxy-1H-indazol-4-yl)methyl)pyrimidine-2,4-diamine] |  | < 50 | Ki [1, 3]: 13.6 nM; IC50 [2]: 189 nM
5 | CN(Cc1ccc2[nH]cnc2c1)c1nc(Nc2cc(C3CC3)[nH]n2)cc(C(C)(C)O)n1 [II-97, 2-[2-[(1H-Benzoimidazol-5-ylmethyl)-methyl-amino]-6-(5-cyclopropyl-1H-pyrazol-3-ylamino)-pyrimidin-4-yl]-propan-2-ol] |  | < 50 | Ki [1, 3]: 41.7 nM; IC50 [2]: 1700 nM
6 | C[C@H](Nc1nccc(Nc2cc(CC3CC3)[nH]n2)n1)c1ccc2[nH]cnc2c1 [I-45, (S)—N^2-(1-(1H-benzo[d]imidazol-5-yl)ethyl)-N^4-(5-(cyclopropylmethyl)-1H-pyrazol-3-yl)pyrimidine-2,4-diamine] | < 50 |  | Ki [1, 3]: 41 nM; IC50 [2]: 1200 nM
7 | CC[C@H](Nc1ncc(F)c(Nc2cc(C3CC3)[nH]n2)n1)c1ccc2[nH]cnc2c1 [I-101, N^2-[(1S)-1-(1H-benzimidazol-5-yl)propyl]-N^4-(5-cyclopropyl-1H-pyrazol-3-yl)-5-fluoro-pyrimidine-2,4-diamine] | 50 to 250 |  | 
8 | c1cc(CNc2nccc(Nc3cc(C4CC4)[nH]n3)n2)c2cc[nH]c2c1 [I-38, N^2-((1H-Indol-4-yl)methyl)-N^4-(5-cyclopropyl-1H-pyrazol-3-yl)pyrimidine-2,4-diamine] | 50 to 250 |  | 
9 | Cc1cc(CNc2nccc(Nc3cc(C4CC4)[nH]n3)n2)cc2nc[nH]c12 [I-26, N^4-(5-Cyclopropyl-1H-pyrazol-3-yl)-N^2-((7-methyl-1H-benzo[d]imidazol-5-yl)methyl)-pyrimidine-2,4-diamine] | 50 to 250 |  | 
10 | C[C@H](Nc1nccc(Nc2cc([C@H]3C[C@@H]3F)[nH]n2)n1)c1ccc2[nH]cnc2c1 [I-70, N^2—((S)-1-(1H-benzo[d]imidazol-5-yl)ethyl)-N^4-(5-((1R,2S)-2-fluorocyclopropyl)-1H-pyrazol-3-yl)pyrimidine-2,4-diamine] | < 50 |  | 
11 | CN(Cc1ccc2[nH]cnc2c1Cl)c1nccc(Nc2cc([C@@H]3C[C@H]3F)[nH]n2)n1 [II-49, N^2-((4-chloro-1H-benzo[d]imidazol-5-yl)methyl)-N^4-(5-((1S,2R)-2-fluorocyclopropyl)-1H-pyrazol-3-yl)-N^2-methylpyrimidine-2,4-diamine] |  | < 50 | 
12 | Fc1cc(CNc2nccc(Nc3cc(C4CCC4)[nH]n3)n2)c2cc[nH]c2c1 [I-88, N^4-(5-Cyclobutyl-1H-pyrazol-3-yl)-N^2-((6-fluoro-1H-indol-4-yl)methyl)pyrimidine-2,4-diamine Formate] | < 50 |  | 
13 | Fc1cc(CNc2nccc(Nc3cc(C4CC4)[nH]n3)n2)c2nc[nH]c2c1 [II-27, N^4-(5-Cyclopropyl-1H-pyrazol-3-yl)-N^2-((6-fluoro-1H-benzo[d]imidazol-4-yl)methyl)-pyrimidine-2,4-diamine] |  | 50 to 250 | 
14 | Cc1cc(Nc2cc(C3CC3)[nH]n2)nc(NCc2cccc3[nH]ccc23)n1 [I-54, N^2-((1H-indol-4-yl)methyl)-N^4-(5-cyclopropyl-1H-pyrazol-3-yl)-6-methylpyrimidine-2,4-diamine] | 50 to 250 |  | 
15 | Cc1cc(Nc2ccnc(N(C)Cc3ccc4[nH]cnc4c3Cl)n2)n[nH]1 [II-76, N^2-((4-chloro-1H-benzo[d]imidazol-5-yl)methyl)-N^2-methyl-N^4-(5-methyl-1H-pyrazol-3-yl)pyrimidine-2,4-diamine] |  | < 50 | 
16 | FC1(F)C[C@H]1c1cc(Nc2ccnc(NCc3ccc4[nH]cnc4c3Cl)n2)n[nH]1 [I-74, (S)—N^2-((4-chloro-1H-benzo[d]imidazol-5-yl)methyl)-N^4-(5-(2,2-difluorocyclopropyl)-1H-pyrazol-3-yl)pyrimidine-2,4-diamine] | < 50 |  | 
17 | C[C@H](Nc1nccc(Nc2cc(C3CC3)[nH]n2)n1)c1cc(F)cc2c1cnn2C [II-40, (S)-N^4-(5-cyclopropyl-1H-pyrazol-3-yl)-N^2-(1-(6-fluoro-1-methyl-1H-indazol-4-yl)ethyl)pyrimidine-2,4-diamine] |  | 50 to 250 | 

Row | Compound | Ki [1, 4] [nM] | Ki [1, 5] [nM] | also measured
18 | F[C@@H]1C[C@@H]1c1cc(Nc2ccnc(NCc3cccc4[nH]ccc34)n2)n[nH]1 (racemic) [I-81] | 50 to 250 |  | 
19 | F[C@H]1C[C@@H]1c1cc(Nc2ccnc(NCc3ccc4[nH]cnc4c3Cl)n2)n[nH]1 [I-79, N^2-((4-chloro-1H-benzo[d]imidazol-5-yl)methyl)-N^4-(5-((1R,2S)-2-fluorocyclopropyl)-1H-pyrazol-3-yl)pyrimidine-2,4-diamine] | < 50 |  | 
20 | c1cc(CNc2nccc(Nc3cc(OCC4CC4)[nH]n3)n2)c2cc[nH]c2c1 [I-42, N^2-((1H-indol-4-yl)methyl)-N^4(5-(cyclopropylmethoxy)-1H-pyrazol-3-yl)pyrimidine-2,4-diamine] | 250 to 1000 |  | 
21 | COc1cc(Nc2ccnc(N(C)Cc3ccc4[nH]cnc4c3Cl)n2)n[nH]1 [II-29, N^2-((4-Chloro-1H-benzo[d]imidazol-5-yl)methyl)-N^4-(5-methoxy-1H-pyrazol-3-yl)-N^2-methylpyrimidine-2,4-diamine] |  | 50 to 250 | 
22 | C[C@H](Nc1nccc(Nc2cc([C@@H]3CC3(F)F)[nH]n2)n1)c1ccc2[nH]cnc2c1 [I-61, N^2—((S)-1-(1H-benzo[d]imidazol-5-yl)ethyl)-N^4-(5-((S)-2,2-difluorocyclopropyl)-1H-pyrazol-3-yl)pyrimidine-2,4-diamine] | 50 to 250 |  | 
23 | C[C@@H](Nc1nccc(Nc2cc(C3CC3)[nH]n2)n1)c1ccc2[nH]ccc2c1 [I-60, (R)—N^2-(1-(1H-indol-5-yl)ethyl)-N^4-(5-cyclopropyl-1H-pyrazol-3-yl)pyrimidine-2,4-diamine] |  |  | Ki ([1]; Ki, Table I, PAK1 Ki class): > 1000 nM
24 | Cc1ccc2[nH]ccc2c1CNc1nccc(Nc2cc(C3CC3)[nH]n2)n1 [I-122, N^4-(5-Cyclopropyl-1H-pyrazol-3-yl)-N^2-((5-methyl-1H-indol-4-yl)methyl)pyrimidine-2,4-diamine] | 50 to 250 |  | 
25 | CN(Cc1ccc2[nH]cnc2c1Cl)c1ncc(F)c(Nc2cc(C3CC3)[nH]n2)n1 [I-86, N^2-((4-chloro-1H-benzo[d]imidazol-5-yl)methyl)-N^4-(5-cyclopropyl-1H-pyrazol-3-yl)-5-fluoro-N^2-methylpyrimidine-2,4-diamine] | < 50 |  | 
26 | c1cc(Nc2cc(C3CC3)[nH]n2)nc(N(Cc2ccc3[nH]cnc3c2)C2CC2)n1 [II-78, N^2-((1H-benzo[d]imidazol-5-yl)methyl)-N^2-cyclopropyl-N^4-(5-cyclopropyl-1H-pyrazol-3-yl)pyrimidine-2,4-diamine] |  | < 50 | 
27 | CC(C)(O)c1cc(Nc2cc(C3CC3)[nH]n2)nc(NCc2cccc3[nH]ccc23)n1 [I-85, 2-(2-((1H-indol-4-yl)methylamino)-6-(5-cyclopropyl-1H-pyrazol-3-ylamino)pyrimidin-4-yl)propan-2-ol] | 50 to 250 |  | 
28 | CCN(Cc1ccc2[nH]cnc2c1)c1ncc(F)c(Nc2cc(C3CC3)[nH]n2)n1 [II-104, N^2-((1H-benzo[d]imidazol-5-yl)methyl)-N^4-(5-cyclopropyl-1H-pyrazol-3-yl)-N^2-ethyl-5-fluoropyrimidine-2,4-diamine] |  | 50 to 250 | 
29 | Fc1cc(CNc2nccc(Nc3cc(C4CC4)[nH]n3)n2)c2cc[nH]c2c1 [I-53, N^4-(5-cyclopropyl-1H-pyrazol-3-yl)-N^2-((6-fluoro-1H-indol-4-yl)methyl)pyrimidine-2,4-diamine] | < 50 |  | 
30 | Cc1c[nH]c2ccc(CNc3nccc(Nc4cc(C5CC5)[nH]n4)n3)cc12 [I-25, N^4-(5-cyclopropyl-1H-pyrazol-3-yl)-N^2-((3-methyl-1H-indol-5-yl)methyl)pyrimidine-2,4-diamine] | 50 to 250 |  | 
31 | c1cncc(CN(Cc2cccc3[nH]ccc23)c2nccc(Nc3cc(C4CC4)[nH]n3)n2)c1 [II-10, N^4-(5-Cyclopropyl-1H-pyrazol-3-yl)-N^2-(1H-indol-4-ylmethyl)-N^2-(3-pyridylmethyl)pyrimidine-2,4-diamine] |  | 50 to 250 | 
32 | CN(Cc1ccc2[nH]cnc2c1Cl)c1ncc(F)c(Nc2cc(C3COC3)[nH]n2)n1 [II-5, N^2-[(4-Chloro-1H-benzimidazol-5-yl)methyl]-5-fluoro-N^2-methyl-N^4-[5-(oxetan-3-yl)-1H-pyrazol-3-yl]pyrimidine-2,4-diamine] |  | < 50 | 
33 | CN(Cc1cccc2[nH]ncc12)c1ncc(F)c(Nc2cc(C3CC3)[nH]n2)n1 [II-93, N^2-((1H-indazol-4-yl)methyl)-N^4-(5-cyclopropyl-1H-pyrazol-3-yl)-5-fluoro-N^2-methylpyrimidine-2,4-diamine] |  | < 50 | 
